{"source": "patent US20050222312A1", "about": "“Antioxidant and antimicrobial agents and methods of use thereof” (priority 2002, published 2005)", "key": {"[1]": {"tested_on": "forestomachs of rats", "conditions": "Nera et al., Toxicology 32:197-213 (1984); cited from earlier work"}, "[2]": {"assay": "antioxidant activity, peroxide value of corn oil", "conditions": "0.01% w/w (100 ppm), 60° C., FIG. 1", "protocol": "(§1) Aliquots of corn oil stripped of endogenous antioxidants were mixed with either 1,2,3,4-tetrahydroxybenzene (OH-Bz), or with a known antioxidant chosen from propyl gallate (PG), tert-butylhydroquinone (TBHQ), and α-tocopherol (Toc). Each antioxidant was at a concentration of 0.01% w/w (i.e., 100 ppm). The mixtures (as well as controls) were maintained at 60° C. Samples of each mixture were removed at a series of time points over a period of 28 days, and the peroxide value of each sample was measured using standard laboratory techniques (FIG. 1). Similarly, aliquots of lard were mixed with either 1,2,3,4-tetrahydroxybenzene (OH-Bz), or with a known antioxidant chosen from propyl gallate (PG), tert-butylhydroquinone (TBHQ), and α-tocopherol (Toc). Each antioxidant was at a concentration of 0.01% w/w. The mixtures (as well as controls) were maintained at 60° C. Samples of each mixture were removed at a series of time points over a period of 26 days, and the peroxide value of each sample was measured using standard laboratory techniques (FIG. 2)."}, "[3]": {"tested_on": "Escherichia coli", "assay": "inhibition zone experiment (pour plate, filter disc)", "format": "cell-based", "conditions": "24 hrs, FIG. 3", "protocol": "(§2) For these experiments, three strains of Listeria monocytogenes (CWD 95, CWD 246 and CWD 201), three strains of Escherichia coli O157:H7 (AR, AD 305, and AD 317), Salmonella typhimurium (clinical DT 104 isolate H3380), Salmonella enteritidis (clinical isolate H3527, phage type 13A) and Salmonella heidelberg (clinical isolate F5038BG1, Maryland outbreak) were obtained. All strains were stored at −70° C., in Trypticase soy broth containing 10% (v/v) glycerol. Thawed strains were subcultured three times in Trypticase soy broth containing 0.6% (w/v) yeast extract (TSB-YE) (Difco Laboratories, Detroit, Mich.) at 35° C., 18 to 24 h before use.\n(§3) To test antimicrobial activity of 1,2,3,4-tetrahydroxybenzene, a pour plate technique was used in which 200 μl samples of subcultured bacteria (either […] colony forming units (CFU)/ml of Salmonella, 109 CFU/ml of L. monocytogenes or 10^9 CFU/ml of E. coli) were transferred to a Petri dish (100 mm×15 mm) to which 20 ml of Trypticase soy agar containing 0.6% (w/v) yeast extract (TSA-YE) was added. The contents of each Petri dish was then mixed by gently forming figure eights with the dish against the bench top. Separately, solutions of 1,2,3,4-tetrahydroxybenzene were prepared at the following concentrations: 1.4 M, 0.14 M, 0.014 M, 0.0014 M, and 0.00014 M. 16 mm filter discs comprising 1,2,3,4-tetrahydroxybenzene each then received 50 μl of a solution comprising one concentration of 1,2,3,4-tetrahydroxybenzene. A single 16 mm disc comprising 50 μl of one concentration of 1,2,3,4-tetrahydroxybenzene was then placed aseptically in the center of each Petri dish. The Petri dishes were then incubated at 35° C. Zones of growth inhibition were determined by observation at 24 hrs. All tests were run in triplicate and averaged."}, "[4]": {"tested_on": "Listeria monocytogenes", "assay": "inhibition zone experiment (pour plate, filter disc)", "format": "cell-based", "conditions": "24 hrs, FIG. 3", "protocol": "as §2, §3"}, "[5]": {"tested_on": "Salmonella typhimurium", "assay": "inhibition zone experiment (pour plate, filter disc)", "format": "cell-based", "conditions": "24 hrs, FIG. 3", "protocol": "as §2, §3"}, "[6]": {"tested_on": "E. coli O157:H7", "assay": "liquid culture growth inhibition assay", "format": "cell-based, Escherichia coli O157:H7", "conditions": "all strains tested, 24 and 48 hrs", "protocol": "as §2\n(§4) For these experiments, sub-cultured bacteria (10^8 cfu Salmonella; 10^9 cfu Listeria monocytogenes and 10^9 cfu E. coli) were each added to culture tubes containing TSB-YE. Three strains of each bacterial species were used, and 1,2,3,4-tetrahydroxybenzene was added to concentrations ranging from 1.4 mM to 14 mM. Three culture tubes were used for each 1,2,3,4-tetrahydroxybenzene concentration. The samples were incubated at 35° C. and observation of growth was recorded at 24 and 48 hrs. Results were reported as the number or tubes positive or negative for growth at 24 h and 48 h."}, "[7]": {"tested_on": "Salmonella cocktail", "assay": "liquid culture growth inhibition assay", "format": "cell-based", "protocol": "as §2, §4"}, "[8]": {"tested_on": "Salmonella enteritidis", "assay": "liquid culture growth inhibition assay", "format": "cell-based", "conditions": "all strains tested, 24 and 48 hrs", "protocol": "as §2, §4"}, "[9]": {"tested_on": "Listeria monocytogenes", "assay": "liquid culture growth inhibition assay", "format": "cell-based", "conditions": "all strains tested, 24 and 48 hrs", "protocol": "as §2, §4"}, "[10]": {"tested_on": "Salmonella heidelberg", "assay": "liquid culture growth inhibition assay", "format": "cell-based", "conditions": "all strains tested, 24 and 48 hrs", "protocol": "as §2, §4"}, "[11]": {"tested_on": "Salmonella typhimurium", "assay": "liquid culture growth inhibition assay", "format": "cell-based", "conditions": "all strains tested, 24 and 48 hrs", "protocol": "as §2, §4"}, "[12]": {"assay": "antioxidant activity, peroxide value of lard", "conditions": "0.01% w/w, 60° C., FIG. 2", "protocol": "as §1"}, "[13]": {"conditions": "50 μl at 1.4 M or 0.14 M on 16 mm filter disc"}, "[14]": {"conditions": "concentrations lower than 0.14 M, 16 mm filter disc"}}}
{"smiles": "COc1ccc(O)c(C(C)(C)C)c1", "note": "[BHA, butylated hydroxyanisole]", "values": [{"measurement": "carcinogenicity", "setting": "[1]", "result": "implicated as a carcinogen promoting formation of tumors in the forestomachs of rats"}]}
{"smiles": "Oc1ccc(O)c(O)c1O", "note": "[THB, 1,2,3,4-tetrahydroxybenzene]", "values": [{"measurement": "antioxidant activity (peroxide value)", "setting": "[2]; 28 days", "result": "highly effective antioxidant, equal or superior to PG, TBHQ, PG, and α-tocopherol"}, {"measurement": "period over which antioxidant activity is maintained", "setting": "[2]", "result": "at least 26 days"}, {"measurement": "zones of growth inhibition", "setting": "[3]; [13]", "result": "led to appearance of zones of inhibition"}, {"measurement": "zones of growth inhibition", "setting": "[3]; [14]", "result": "did not form zones of inhibition greater than the diameter of the filter"}, {"measurement": "zones of growth inhibition", "setting": "[4]; [13]", "result": "led to appearance of zones of inhibition"}, {"measurement": "zones of growth inhibition", "setting": "[4]; [14]", "result": "did not form zones of inhibition greater than the diameter of the filter"}, {"measurement": "zones of growth inhibition", "setting": "[5]; [13]", "result": "led to appearance of zones of inhibition"}, {"measurement": "zones of growth inhibition", "setting": "[5]; [14]", "result": "did not form zones of inhibition greater than the diameter of the filter"}, {"measurement": "concentration at which complete inhibition occurred", "setting": "[6]", "result": "≥ 5.6", "unit": "mM"}, {"measurement": "concentration at which complete inhibition occurred", "setting": "[7]", "result": "≥ 5.6", "unit": "mM"}, {"measurement": "concentration at which complete inhibition occurred", "setting": "[8]", "result": "≥ 5.6", "unit": "mM"}, {"measurement": "concentration at which complete inhibition occurred", "setting": "[9]", "result": "≥ 5.6", "unit": "mM"}, {"measurement": "concentration at which complete inhibition occurred", "setting": "[10]", "result": "≥ 5.6", "unit": "mM"}, {"measurement": "concentration at which complete inhibition occurred", "setting": "[11]", "result": "≥ 5.6", "unit": "mM"}, {"measurement": "antioxidant activity (peroxide value)", "setting": "[12]; 26 days", "result": "highly effective antioxidant, equal or superior to PG, TBHQ, PG, and α-tocopherol"}, {"measurement": "period over which antioxidant activity is maintained", "setting": "[12]", "result": "at least 26 days"}]}
